18 compounds from patent US20250051324A1, “PARP INHIBITOR, PHARMACEUTICAL COMPOSITION COMPRISING SAME, AND USE THEREOF” (KEYTHERA (SUZHOU) BIO-PHARMACEUTICALS CO., LIMITED, priority 2021, published 2025) can be followed below.

The test system of data set [1] is MDA-MB-436 breast cancer cells. Briefly: Cell proliferation assay, MDA-MB-436. It is filed as cell-based. Conditions: Homo sapiens, MDA-MB-436, 168 h; proliferation, 7 days; read-out: MDA-MB-436 Cell IC50. The method, then:
Experimental Materials: MDA-MB-436 or UWB1.289 cell lines were purchased from Cobioer Biosciences Co. Ltd. (Nanjing, China). The STR identification results were a complete match, and mycoplasma testing was negative. MDA-MB-436 cells were cultured in DMEM complete medium containing 10% fetal bovine serum, 1% penicillin-streptomycin, 1% insulin, and 16 μg/mL glutathione; UWB1.289 cells were cultured in RMPI1640 complete medium containing 10% fetal bovine serum and 1% penicillin-streptomycin.
1. MDA-MB-436 or UWB1.289 cells were cultured in the aforementioned medium (culture conditions: 37° C., 5.0% CO2 in air) until they reached the logarithmic growth phase. The cells were then digested with trypsin containing 0.25% EDTA, centrifuged at 1000 rpm, and the supernatant was discarded. Cell culture medium was added, and the cell suspension was adjusted to 2×10^4/mL after counting. 135 μL of the cell suspension per well was taken and cultured in a 96-well cell culture plate for 16 hours (culture conditions: 37° C., 5.0% CO2 in air).
2. The test compounds, stored at a concentration of 10 mM, were diluted 2.5 times with DMSO and then serially diluted in a 1:3 gradient (9 gradients). The gradient-diluted samples were further diluted 40 times with serum-free medium, and 15 μL of each was added to the 96-well cell culture plate. The positive control group received serum-free medium containing the same concentration of DMSO, and the negative control group received medium without cells. The cells were then cultured for an additional 7 days.
3. After the culture period, the cell culture plate was placed at room temperature for 30 minutes. Then, 100 μL of CellCounting-Lite 2.0 reagent (Vazyme, #DD1101) was added to each well, mixed thoroughly, and incubated in the dark at room temperature for 10 minutes. The luminescence signal was read using a Synergy HTX multi-mode reader.
4. Data analysis was performed using GraphPad Prism 8.0 software. The inhibition rate (%) was calculated as 100*(average luminescence signal of the positive control group−luminescence signal of the compound)/(average luminescence signal of the positive control group−average luminescence signal of the negative control group). The IC50 value was obtained by plotting the logarithm of the compound concentration against the percentage inhibition rate.

Data set [2] concerns the target PARP1 (Homo sapiens (Human), UniProt P09874). Kind of data set: PARP enzyme activity assay (PARP1 chemiluminescent assay kit). It counts as biochemical. Conditions: enzyme inhibitory activity, read-out: PARP-1 IC50. The source says: Experimental Materials: The PARP1 assay kit was purchased from BPS Bioscience, USA, specifically the 384-well chemiluminescent assay kit (Catalog No.: #80551).
Experimental Principle: PARP can catalyze the transfer of ADP-ribose residues from NAD+ to target substrates, thereby modifying proteins through ribosylation. This experiment measures PARP1 enzyme activity by detecting the poly(ADP-ribosylation) of histones by PARP1.
Preparation of Reagents and Test Compounds: The 10× assay buffer included in the kit was diluted to 1× with distilled water. The test compound (stock concentration of 10 mM) was diluted to 10 μM with a DMSO solution and then serially diluted in a 1:3 ratio. The serially diluted compounds were further diluted 10-fold with the 1× assay buffer.
Experimental Method: The procedure was carried out according to the kit's instructions:
1. The 5× histone mixture was diluted to 1× with PBS, and 25 μL was added to each well of a 384-well plate, incubating overnight at 4° C.
2. After incubation, 100 μL of PBST (0.05% Tween 20) was added to each well for washing, repeated three times. Then, 100 μL of blocking solution was added to each well and incubated at room temperature for 90 minutes.
3. After incubation, the wells were washed three times with PBST, and then 1.25 μL of 10× assay buffer, 1.25 μL of 10×PARP assay mixture, 2.5 μL of activation DNA (5×), and 7.5 μL of distilled water were added to each well.
4. […] The positive control group and the negative control group were added with 1× assay buffer containing the same concentration of DMSO.
5. Next, 10 μL of 2.5 ng/μL PARP1 enzyme was added to the test compound and positive control groups, while 10 μL of 1× assay buffer was added to the negative control group, and the mixture was incubated at room temperature for 60 minutes.
6. Streptavidin-HRP was diluted 1:50 with the blocking solution. After incubation, the plate was washed three times with PBST, and 25 μL of the diluted streptavidin-HRP solution was added to each well, incubating at room temperature for 30 minutes.
7. After incubation, the plate was washed three times with PBST, and 50 μL of the mixed substrate A and substrate B in equal volumes was added. The luminescence signal was immediately read on a Synergy HTX multi-mode reader.
8. Data analysis was performed using GraphPad Prism 8.0 software. The inhibition rate %=100*(average luminescence signal of the positive control group−luminescence signal of the compound)/(average luminescence signal of the positive control group−average luminescence signal of the negative control group). The IC50 value was obtained by plotting the logarithm of the compound concentration against the percentage inhibition rate.

The nature of data set [3]: Evaluation of pharmacokinetics in mice. Conditions: male, ICR (CD1), mouse, plasma, po, 10 mg/kg.

As a reminder, the IC50 is the concentration needed to halve the response being measured. What is called AUC(0-inf) is the area under the concentration-time curve extrapolated to infinity. A high value points to high exposure. The term Cmax denotes the highest concentration seen after dosing. The half-life is the time in which the quantity being followed falls by half. Low values mean fast loss, high ones slow loss.

SMILES strings stand for the structures.

Chain of PARP1 (P09874 whole entry): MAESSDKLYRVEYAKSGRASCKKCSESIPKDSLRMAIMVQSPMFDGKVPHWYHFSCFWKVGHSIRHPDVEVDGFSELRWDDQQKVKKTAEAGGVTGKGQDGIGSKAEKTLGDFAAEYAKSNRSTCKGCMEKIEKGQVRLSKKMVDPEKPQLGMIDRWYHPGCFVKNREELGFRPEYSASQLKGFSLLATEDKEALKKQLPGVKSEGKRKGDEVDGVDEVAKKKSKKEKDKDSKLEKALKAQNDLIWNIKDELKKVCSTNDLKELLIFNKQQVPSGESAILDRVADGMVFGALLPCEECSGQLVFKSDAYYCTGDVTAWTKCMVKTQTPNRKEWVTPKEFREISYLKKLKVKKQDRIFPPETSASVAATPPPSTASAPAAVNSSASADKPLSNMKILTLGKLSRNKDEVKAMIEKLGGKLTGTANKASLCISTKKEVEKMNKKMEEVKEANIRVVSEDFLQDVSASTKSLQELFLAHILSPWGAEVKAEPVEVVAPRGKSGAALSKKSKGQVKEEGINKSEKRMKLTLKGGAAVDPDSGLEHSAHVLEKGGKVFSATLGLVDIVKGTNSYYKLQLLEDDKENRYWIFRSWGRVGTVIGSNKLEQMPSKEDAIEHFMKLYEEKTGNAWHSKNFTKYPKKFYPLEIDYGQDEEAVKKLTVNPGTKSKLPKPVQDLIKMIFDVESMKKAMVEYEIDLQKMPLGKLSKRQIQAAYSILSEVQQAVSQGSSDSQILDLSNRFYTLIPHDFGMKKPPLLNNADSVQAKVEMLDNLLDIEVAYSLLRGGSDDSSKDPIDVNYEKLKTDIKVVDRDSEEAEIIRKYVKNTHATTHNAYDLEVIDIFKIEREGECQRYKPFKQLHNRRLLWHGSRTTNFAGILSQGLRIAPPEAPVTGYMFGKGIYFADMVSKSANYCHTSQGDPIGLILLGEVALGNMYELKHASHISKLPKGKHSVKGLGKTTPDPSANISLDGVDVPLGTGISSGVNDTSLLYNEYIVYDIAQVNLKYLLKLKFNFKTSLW

Take `CNC(=O)c1ccc(N2CCN(Cc3cnc4c(C)c(C(F)(F)F)c(=O)[nH]c4c3)C[C@H]2C#N)cn1` [Compound 86, (S)-5-(2-cyano-4-((8-methyl-6-oxo-7-(trifluoromethyl)-5,6-dihydro-1,5-naphthyridin-3-yl)methyl)piperazin-1-yl)-N-methylpicolinamide]: the IC50 in data set [1] turned out to be 14.8 nM.
On to `CNC(=O)c1ccc(N2CCN(Cc3cnc4c(C)c(C(F)F)c(=O)[nH]c4c3)C[C@H]2C)cn1` [Compound 105, (R)-5-(4-((7-(difluoromethyl)-8-methyl-6-oxo-5,6-dihydro-1,5-naphthyridin-3-yl)methyl)-2-methylpiperazin-1-yl)-N-methylpicolinamide], for which, in data set [1], the concentration for half-maximal inhibition (IC50) stood at 4.93 nM.
Still for that read-out and setting: next, `CNC(=O)c1ccc(N2CCN(Cc3cnc4c(C)c(C(F)(F)F)c(=O)[nH]c4c3)CC2CC#N)cn1` (stereo not drawn) [Compound 73, 5-(2-(cyanomethyl)-4-((8-methyl-6-oxo-7-(trifluoromethyl)-5,6-dihydro-1,5-naphthyridin-3-yl)methyl)piperazin-1-yl)-N-methylpicolinamide]: 14.5 nM.
Regarding `Cc1c(C(F)(F)F)c(=O)[nH]c2cc(CN3CCN(c4ccc(C(=O)NCCO)nc4)CC3)cnc12` [Compound 96, N-(2-hydroxyethyl)-5-(4-((8-methyl-6-oxo-7-(trifluoromethyl)-5,6-dihydro-1,5-naphthyridin-3-yl)methyl)piperazin-1-yl)picolinamide], the 50% inhibitory concentration (IC50) in data set [1] came to 9.34 nM.
In the case of `CCNC(=O)c1ccc(N2CCN(Cc3cnc4c(C)c(C(F)(F)F)c(=O)[nH]c4c3)CC2)cn1` [Compound 98, N-ethyl-5-(4-((8-methyl-6-oxo-7-(trifluoromethyl)-5,6-dihydro-1,5-naphthyridin-3-yl)methyl)piperazin-1-yl)picolinamide], the IC50 in data set [1] was determined as 1.22 nM.
Same read-out and setting: next, `CNC(=O)c1ccc(C2=CCN(Cc3cnc4c(C)c(C(F)F)c(=O)[nH]c4c3)CC2)cn1` [Compound 106, 1′-((7-(difluoromethyl)-8-methyl-6-oxo-5,6-dihydro-1,5-naphthyridin-3-yl)methyl)-N-methyl-1′,2′,3′,6′-tetrahydro-[3,4′-bipyridine]-6-carboxamide]: 0.78 nM.
`Cc1c(C(F)(F)F)c(=O)[nH]c2cc(CN3CCN(c4ncc(C(F)(F)F)cn4)CC3)cnc12` [Compound 19, 4-methyl-3-(trifluoromethyl)-7-((4-(5-(trifluoromethyl)pyrimidin-2-yl)piperazin-1-yl)methyl)-1,5-naphthyridin-2(1H)-one]: the 50% inhibitory concentration (IC50) in data set [2] worked out at 5.48 nM.
For `Cc1c(C(F)(F)F)c(=O)[nH]c2cc(CN3CCN(c4ccc(C(=O)NCC(F)(F)F)nc4)CC3)cnc12` [Compound 97, 5-(4-((8-methyl-6-oxo-7-(trifluoromethyl)-5,6-dihydro-1,5-naphthyridin-3-yl)methyl)piperazin-1-yl)-N-(2,2,2-trifluoroethyl)picolinamide], the 50% inhibitory concentration (IC50) in data set [1] came to 2.12 nM.
Regarding `CNC(=O)c1ccc(N2CCN(Cc3cnc4c(C)c(C(F)(F)F)c(=O)[nH]c4c3)C(CC#N)C2)cn1` (stereo not drawn) [Compound 3, 5-(3-(cyanomethyl)-4-((8-methyl-6-oxo-7-(trifluoromethyl)-5,6-dihydro-1,5-naphthyridin-3-yl)methyl)piperazin-1-yl)-N-methylpicolinamide], in data set [2], the IC50 was 1.53 nM.
Same read-out and setting: next, `CNC(=O)c1ccc(N2CCN(Cc3cnc4c(C)c(C(F)(F)F)c(=O)[nH]c4c3)C(CCO)C2)cn1` (stereo not drawn) [Compound 5, 5-(3-(2-hydroxyethyl)-4-((8-methyl-6-oxo-7-(trifluoromethyl)-5,6-dihydro-1,5-naphthyridin-3-yl)methyl)piperazin-1-yl)-N-methylpicolinamide]: 27.2 nM.
On to `CNC(=O)c1ccc(N2CCN(Cc3cnc4c(C)c(C(F)(F)F)c(=O)[nH]c4c3F)CC2)cn1` [Compound 101, 5-(4-((4-fluoro-8-methyl-6-oxo-7-(trifluoromethyl)-5,6-dihydro-1,5-naphthyridin-3-yl)methyl)piperazin-1-yl)-N-methylpicolinamide], for which, in data set [1], the IC50 turned out to be 8.99 nM.
For the compound `[2H]C([2H])([2H])NC(=O)c1ccc(N2CCN(Cc3cnc4c(C)c(C(F)(F)F)c(=O)[nH]c4c3)CC2)cn1` [Compound 95, N-(methyl-ds)-5-(4-((8-methyl-6-oxo-7-(trifluoromethyl)-5,6-dihydro-1,5-naphthyridin-3-yl)methyl)piperazin-1-yl)picolinamide], in data set [3], the AUC(0-inf) stood at 2050 µg·h/mL, the peak level (Cmax) was 37500 ng/mL and the half-life was 38 h. Also, in data set [1], the IC50 stood at 2.13 nM.
`CNC(=O)c1ccc(N2CCN(Cc3ccc4c(F)c(C)c(=O)[nH]c4c3)CC2)cn1` [Compound 94, 5-(4-((4-fluoro-3-methyl-2-oxo-1,2-dihydroquinolin-7-yl)methyl)piperazin-1-yl)-N-methylpicolinamide]: the IC50 in data set [1] turned out to be 5.69 nM.
As for `CNC(=O)c1ccc(C2=CCN(Cc3cnc4c(C)c(C(F)(F)F)c(=O)[nH]c4c3)CC2)nc1` [Compound 82, N-methyl-1′-((8-methyl-6-oxo-7-(trifluoromethyl)-5,6-dihydro-1,5-naphthyridin-3-yl)methyl)-1′,2′,3′,6′-tetrahydro-[2,4′-bipyridine]-5-carboxamide], in data set [1], the IC50 amounted to 5.83 nM.
For the compound `CNC(=O)c1ccc(C2=CCN(Cc3cnc4c(C)c(C(F)(F)F)c(=O)[nH]c4c3)CC2C)cn1` (stereo not drawn) [Compound 80, N,3′-dimethyl-1′-((8-methyl-6-oxo-7-(trifluoromethyl)-5,6-dihydro-1,5-naphthyridin-3-yl)methyl)-1′,2′,3′,6′-tetrahydro-[3,4′-bipyridine]-6-carboxamide], in data set [1], the concentration for half-maximal inhibition (IC50) is 13.9 nM.
On to `CNC(=O)c1ccc(C2=C(C)CN(Cc3cnc4c(C)c(C(F)(F)F)c(=O)[nH]c4c3)CC2)cn1` [Compound 81, N,5′-dimethyl-1′-((8-methyl-6-oxo-7-(trifluoromethyl)-5,6-dihydro-1,5-naphthyridin-3-yl)methyl)-1′,2′,3′,6′-tetrahydro-[3,4′-bipyridine]-6-carboxamide], for which, in data set [1], the IC50 is 13.2 nM.
As for `CNC(=O)c1ccc(N2CCN(Cc3cnc4c(F)c(C)c(=O)[nH]c4c3)CC2)cn1` [Compound 103, 5-(4-((8-fluoro-7-methyl-6-oxo-5,6-dihydro-1,5-naphthyridin-3-yl)methyl)piperazin-1-yl)-N-methylpicolinamide], in data set [1], the half-inhibitory concentration (IC50) was 3.76 nM.
Still for that read-out and setting: the figure for `CNC(=O)c1ccc(N2CCN(Cc3cnc4c(C)c(C(F)F)c(=O)[nH]c4c3)[C@H](C)C2)cn1` [Compound 104, (R)-5-(4-((7-(difluoromethyl)-8-methyl-6-oxo-5,6-dihydro-1,5-naphthyridin-3-yl)methyl)-3-methylpiperazin-1-yl)-N-methylpicolinamide] is 6.5 nM.
